Laboratory results reported in US20230123585A1, “COMPOSITIONS AND METHODS FOR TREATING OR PREVENTING CANCER USING DEUBIQUITINASE INHIBITORS” (The University of Chicago, priority 2020, published 2023).
Peptide text beside a SMILES is read from it. * marks the point of attachment. Cbz = O=C(OCc1ccccc1)*

Experiments:
[1] = tested on: METTL3 in SKBR3 cells; assay: Immunofluorescence analysis of METTL3 in SKBR3 cells; format: cell-based; conditions: 1 μM, 8 hr
Experimental: (§1) FIGS. 6A-6H: Phosphorylation of the m^6A Methyltransferase Complex May Affect Tumorigenesis. (A) Lysates of A375 stable transfectants harvested at different time points after treatment with cycloheximide (CHX) 10 μg/ml were analyzed by immunoblot. (B) LC-MS/MS quantification of the m^6A/A ratio in mRNA of A375 stable transfectants. (C) After 8 h treatment with 10 μM PD0325901 or 0.1 μM tramentib, cell lysates from A375 cells were analyzed by immunoblot. (D) LC-MS/MS quantification of the m^6A/A ratio in mRNA of A375 cells treated with 10 μM PD0325901 or 0.1 μM tramentib for 48 h. (E) After 8hr treatment with 10 μM EOAI3402143 (EOAI) or 30 μM vialinin A , cell lysates from A375 cells were analyzed by immunoblot. (F) A375 stable transfectants as indicated were treated with 3 μM EOAI3402143 (EOAI) or 10 μM vialinin A before measuring cell viability by SRB assay. Data are presented as relative to the R-WT cells without drug treatment (n=3 per group, data represent mean±SEM). (G) Immunofluorescence analysis of METTL3 (green) in SKBR3 cells treated with 1 μM tucatinib and 1 μM lapatinib for 8 hr. DAPI (blue) was used to mark the nucleus. (H) LC-MS/MS quantification of the m^6A/A ratio in mRNA of SKBR3 and BT474 cells treated with 1 μM tucatinib and 1 μM lapatinib for 48 h. […]
Confocal Microscopy. […] Confocal fluorescence images were captured using Olympus FV1000 confocal spectral microscope.

[2] = tested on: mRNA m^6A in SKBR3 and BT474 cells; assay: LC-MS/MS quantification of the m^6A/A ratio in mRNA of SKBR3 and BT474 cells; format: cell-based; conditions: 1 μM, 48 h
Experimental: as §1, with “(F) A375 stable transfectants as indicated were treated with 3 μM EOAI3402143 (EOAI) or 10 μM vialinin A before measuring cell viability by SRB assay. Data are presented as relative to the R-WT cells without drug treatment (n=3 per group, data represent mean±SEM). (G) Immunofluorescence analysis of METTL3 (green) in SKBR3 cells treated with 1 μM tucatinib and 1 μM lapatinib for 8 hr. DAPI (blue) was used to mark the nucleus.” left out
LC-MS/MS quantification of m^6A in poly(A) RNA. mRNA was extracted from the total RNA using 2 rounds of the Dynabeads mRNA purification kit. […] The nucleosides were quantified by using the nucleoside-to-base ion mass transitions of 282 to 150 (m^6A) and 268 to 136 (A). Quantification was carried out by comparison with a standard curve obtained from pure nucleoside. The ratio of m^6A to A was calculated based on the calibrated concentrations (Liu et al., 2018).

[3] = tested on: p-METTL3 (S43); assay: p-METTL3 (S43) in A375 cells, IP with METTL3 antibody followed by immunoblot; format: cell-based, human; conditions: 1 h, 1 μM dabrafenib, 1 μM PLX-4720, 10 μM PD0325901, 0.1 μM trametinib
From the text: FIGS. 10A-10G: ERK Interacts and Phosphorylates METTL3 and WTAP. (A-C) Mass spectrometry detected S43, S50 and S525 phosphorylation in METTL3 in 293T cells co-transfected with B-RAF V600E. (D) Characterization of anti-p-METTL3 (S43) antibodies of 293T cells transfected as indicated with MEK S218D/S222D, HER2 V659E, B-RAF V600E and WT or non-phosphorylatable alanine mutant (3A) METTL3. (E) The METTL3 S43 phosphorylation was identified by in vitro kinase assays, in which purified METTL3-METTL14 were incubated with activated ERK2. (F) A375 cells were treated with 1 μM dabrafenib, 1 μM PLX-4720, 10 μM PD0325901, 0.1 μM tramentib for 1 h. Cell lysates were subjected to IP with METTL3 antibody followed by immunoblot. (G) Phos-tag SDS-PAGE showing the phosphorylation status of WT or non-phosphorylatable alanine mutants of mice WTAP in 293T cells co-transfected with B-RAF. 2A, T298A/S341A.
To investigate METTL3 phosphorylation by ERK inside cells, a polyclonal antibody was generated that targets S43-phosphorylated METTL3. This antibody recognizes S43-phosphorylated METTL3 but not a mutant form of METTL3, METTL3 3A, with all three phosphorylation serine sites replaced with alanine (FIG. 10D). This P-S43 antibody was then used as a tool to monitor METTL3 phosphorylation. […] Furthermore, the p-METTL3 (S43) in A375 cells, a human melanoma cell line with constitutively active ERK due to a B-RAF V600E mutation, was abrogated by treatments with B-RAF inhibitors (dabrafenib and PLX4720) or MEK inhibitors (PD0325901 and trametinib) (FIG. 10F), supporting that S43 phosphorylation on METTL3 is installed through the ERK pathway.
Immunoprecipitation, immunoblotting, and in vitro kinase assay. Immunoprecipitation (IP) and immunoblotting (IB) were performed as previously described (Sun et al., 2016). […] Primary antibodies were detected by HRP-linked secondary antibodies (Cell Signaling) together with SuperSignal West Pico Plus chemiluminescent substrate (Thermo Scientific) and imaged in a FluorChem R system (ProteinSimple).

[4] = tested on: A375 cells; assay: Cell viability of control or METTL3 knockdown A375 cells after treatment with DNA damage repair modulators; format: cell-based, human; conditions: METTL3 knockdown versus control
Experimental: FIGS. 24A-24E: The synergistic damage effects of METTL3 knockdown with DNA damage repair modulators or inhibitors of specific DNA repair pathways in cancer cells. […] Error bars indicate mean±s.e.m. P values were determined by two-tailed t-test. (E) Analysis of dsDNA break in the control or METTL3 knockdown colon cancer cells. TUNEL assay was performed.

[5] = tested on: ubiquitination of METTL3; assay: Ubiquitination of METTL3 in A375 cells transfected with HA-ubiquitin (IP anti-METTL3, immunoblot anti-HA); format: cell-based, human; conditions: 10 μM MG-132 and 10 μM EOAI3402143 or 30 μM vialinin A for 8 h
Experimental: (§2) FIGS. 11A-11G: USP5 is Required for ERK-Mediated METTL3 Stabilization. (A) A375 cells transfected with HA-ubiquitin (ub) were treated with 10 μM MG-132 and MEK inhibitor PD0325901 for 8 h. The ubiquitination of METTL3 was detected by IP with anti-METTL3 and immunoblot with anti-HA. (B) After 8 h treatment with 10 μM PD0325901 with or without 10 μM MG-132, cell lysates from A375 cells were analyzed by immunoblot. (C) A375 cells were treated with various concentrations of PD0325901 for 1 h. Cell lysates were subjected to IP with METTL3 antibody followed by immunoblot. (D) 293T cells transfected as indicated were subjected to IP/immunoblot analysis. (E) Immunofluorescence analysis of myc-METTL3 (green) in mESC stable transfectants. DAPI (blue) was used to mark the nucleus. (F) Lysates of 293T cells transfected as indicated were subjected to IP with anti-Flag antibody followed by immunoblot. (G) Immunofluorescence analysis of 293T cells co-transfected with myc-METTL3 (green), Flag-USP5 (red) with or without constitutively active B-RAF.
FIGS. 14A-14I: Phosphorylation of the m^6A Methyltransferase Complex May Affect Tumorigenesis. […] (B) LC-MS/MS quantification of the m^6A/A ratio in mRNA of melanoma cell lines. (C) After 8 h treatment with 10 μM PD0325901 or 0.1 μM tramentib, cell lysates from HCT-116 cells were analyzed by immunoblot. […] The ubiquitination of METTL3 was detected by IP with anti-METTL3 and immunoblot with anti-HA. (F) After 8 hr treatment with 10 μM EOAI3402143 (EOAI) or 30 μM vialinin A, cell lysates from HCT-116 cells were analyzed by immunoblot. […] (I) LC-MS/MS quantification of the m^6A/A ratio in mRNA of breast cancer cell lines.
Immunoprecipitation, immunoblotting, and in vitro kinase assay. […] Primary antibodies were detected by HRP-linked secondary antibodies (Cell Signaling) together with SuperSignal West Pico Plus chemiluminescent substrate (Thermo Scientific) and imaged in a FluorChem R system (ProteinSimple).

[6] = tested on: METTL3 / m^6A methyltransferase complex in A375 cells; assay: Immunoblot of METTL3 / m^6A methyltransferase complex protein in A375 cell lysates; format: cell-based, human
Experimental: FIGS. 6A-6H: Phosphorylation of the m^6A Methyltransferase Complex May Affect Tumorigenesis. (A) Lysates of A375 stable transfectants harvested at different time points after treatment with cycloheximide (CHX) 10 μg/ml were analyzed by immunoblot. (B) LC-MS/MS quantification of the m^6A/A ratio in mRNA of A375 stable transfectants. (C) After 8 h treatment with 10 μM PD0325901 or 0.1 μM tramentib, cell lysates from A375 cells were analyzed by immunoblot. (D) LC-MS/MS quantification of the m^6A/A ratio in mRNA of A375 cells treated with 10 μM PD0325901 or 0.1 μM tramentib for 48 h. (E) After 8hr treatment with 10 μM EOAI3402143 (EOAI) or 30 μM vialinin A , cell lysates from A375 cells were analyzed by immunoblot. (F) A375 stable transfectants as indicated were treated with 3 μM EOAI3402143 (EOAI) or 10 μM vialinin A before measuring cell viability by SRB assay. Data are presented as relative to the R-WT cells without drug treatment (n=3 per group, data represent mean±SEM). (G) Immunofluorescence analysis of METTL3 (green) in SKBR3 cells treated with 1 μM tucatinib and 1 μM lapatinib for 8 hr. DAPI (blue) was used to mark the nucleus. (H) LC-MS/MS quantification of the m^6A/A ratio in mRNA of SKBR3 and BT474 cells treated with 1 μM tucatinib and 1 μM lapatinib for 48 h. (See also FIG. 14.)
as §2
Immunoprecipitation, immunoblotting, and in vitro kinase assay. Immunoprecipitation (IP) and immunoblotting (IB) were performed as previously described (Sun et al., 2016). In brief, protein samples were isolated from respective cells by lysis in RIPA buffer (1% Triton X-100, 150 mM NaCl, 20 mM Na2PO4, pH 7.4) containing Halt Protease and Phosphatase Inhibitor Cocktail (Thermo Scientific). Subsequently, a BCA assay (Thermo Scientific) was used to determine the protein concentrations. For IP, indicated antibody and protein A/G magnetic beads (Thermo Scientific) were incubated with lysate at 4° C. overnight followed by washing and elution with sample buffer. Equal amounts of protein were separated by SDS-PAGE followed by wet transfer to PVDF membranes. Blots were blocked with 5% non-fat milk or BSA and incubated with respective primary antibody at 4° C. overnight. Primary antibodies were detected by HRP-linked secondary antibodies (Cell Signaling) together with SuperSignal West Pico Plus chemiluminescent substrate (Thermo Scientific) and imaged in a FluorChem R system (ProteinSimple).

Cc1cc(Nc2ncnc3ccc(NC4=NC(C)(C)CO4)cc23)ccc1Oc1ccn2ncnc2c1 [tucatinib]
METTL3 protein level [1]: reduce | cellular mRNA m^6A methylation (m^6A/A ratio) [2]: reduce

CC(C)(C)c1nc(-c2cccc(NS(=O)(=O)c3c(F)cccc3F)c2F)c(-c2ccnc(N)n2)s1 [dabrafenib]
p-METTL3 (S43) [3]: abrogated

Bleomycin
effect on cell viability of DNA damage agent with METTL3 knockdown [4]: synergistic effects

C[C@@H]1COCCN1c1cc(C2([S@](C)(=N)=O)CC2)nc(-c2cc[nH]c3nccc2-3)n1 [AZD6738, ceralasertib]
cell death of METTL3 knockdown cells versus controls after DNA damage repair inhibitor [4]: more severe cell death

O=c1[nH]cc(F)c(=O)[nH]1 [5-FU]
effect on cell viability of DNA damage agent with METTL3 knockdown [4]: synergistic effects

O=C(Cc1ccccc1)Oc1c(OC(=O)Cc2ccccc2)c(-c2ccc(O)cc2)c(O)c(O)c1-c1ccc(O)cc1 [vialinin]
ubiquitination of METTL3 [5]: increased | METTL3 protein level ([6]; A375 cells (also HCT-116, FIG. 14F), 8 hr, 10 μM EOAI3402143 or 30 μM vialinin A): decreased

C[C@]1(c2nc3c(C(N)=O)cccc3[nH]2)CCCN1 [veliparib]
cell death of METTL3 knockdown cells versus controls after DNA damage repair inhibitor [4]: more severe cell death

CS(=O)(=O)CCNCc1ccc(-c2ccc3ncnc(Nc4ccc(OCc5cccc(F)c5)c(Cl)c4)c3c2)o1 [lapatinib]
METTL3 protein level [1]: reduce | cellular mRNA m^6A methylation (m^6A/A ratio) [2]: reduce

CCCS(=O)(=O)Nc1ccc(F)c(C(=O)c2c[nH]c3ncc(Cl)cc23)c1F [PLX4720]
p-METTL3 (S43) [3]: abrogated

CC(C)C[C@@H](C=O)NC(=O)[C@H](CC(C)C)NC(=O)[C@H](CC(C)C)NC(=O)OCc1ccccc1 [MG132] (Cbz-Leu-Leu-Leu-aldehyde)
PD0325901-induced degradation of METTL3 on addition of proteasome inhibitor ([6]; A375 cells, 10 μM PD0325901 with 10 μM MG-132, 8 h): restored
